Experimental data from patent US9938258B2 (Karyopharm Therapeutics Inc., priority 2012, dated 2018).
pIC50: −log10 of the molar value. Where two headings read alike, the source gives them in different places.

What was measured:
3T3 cells = assay: MTT cell proliferation assay, 3T3; type: cell-based, mouse; details: Mus musculus, NIH3T3, 3T3 cells, read-out: MTT Assay IC50, 3T3
Summary of the method: (§1)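 Cells were seeded at 5,000-10,000 per well, left to attach overnight, then exposed to eight compound concentrations from 1 nM to 30 μM. After about 4 h with MTT, solubilized formazan was read at 490 nm and percent inhibition versus negative control was calculated.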

Z138 cells = assay: MTT cell proliferation assay, Z138; type: cell-based; details: Homo sapiens, Z-138, Z138 cells, read-out: MTT Assay IC50, Z138
Summary of the method: as §1

MS751 cells = assay: MTT cell proliferation assay, MS751; type: cell-based, human; details: Homo sapiens, MS751, MS751 cells, read-out: MTT Assay IC50, MS751
Summary of the method: as §1

[1] = eight concentrations 1 nM to 30 μM, incubation approximately 64-72 hours
[2] = approximately 64-72 hours incubation

CCn1cc(/C=C/C(=O)NCC2Cc3cc(-c4ccc(C(C)=O)s4)cc(Cl)c3O2)cn1 (stereo not drawn) [Compound 155, (E)-N-((5-(5-acetylthiophen-2-yl)-7-chloro-2,3-dihydrobenzofuran-2-yl)methyl)-3-(1-ethyl-1H-pyrazol-4-yl)acrylamide]
pIC50 (3T3 cells; [1]): < 4.52
pIC50 (Z138 cells; [1]): < 4.52
pIC50 (MS751 cells; [1]): < 4.52

CC(=O)c1ccc(-c2cc(Cl)c3c(c2)CC(CNC(=O)/C=C/c2cn(C)nc2C)O3)s1 (stereo not drawn) [Compound 156, (E)-N-((5-(5-acetylthiophen-2-yl)-7-chloro-2,3-dihydrobenzofuran-2-yl)methyl)-3-(1,3-dimethyl-1H-pyrazol-4-yl)acrylamide]
pIC50 (3T3 cells; [1]): < 4.52
pIC50 (Z138 cells; [1]): < 4.52
pIC50 (MS751 cells; [1]): < 4.52

CC(=O)c1ccc(-c2cc(Cl)c3c(c2)CC(CNC(=O)/C=C/c2cnn(C)c2C)O3)s1 (stereo not drawn) [Compound 157, (E)-N-((5-(5-acetylthiophen-2-yl)-7-chloro-2,3-dihydrobenzofuran-2-yl)methyl)-3-(1,5-dimethyl-1H-pyrazol-4-yl)acrylamide]
pIC50 (3T3 cells; [1]): < 4.52
pIC50 (Z138 cells; [1]): < 4.52
pIC50 (MS751 cells; [1]): < 4.52

CC(=O)c1ccc(-c2cc(Cl)c3c(c2)CC(CNC(=O)/C=C/c2csc(C)n2)O3)s1 (stereo not drawn) [Compound 159, (E)-N-((5-(5-acetylthiophen-2-yl)-7-chloro-2,3-dihydrobenzofuran-2-yl)methyl)-3-(2-methylthiazol-4-yl)acrylamide]
pIC50 (3T3 cells; [1]): < 4.52
pIC50 (Z138 cells; [1]): < 4.52
pIC50 (MS751 cells; [1]): < 4.52

CC(=O)c1ccc(-c2cc(Cl)c3c(c2)CC(CNC(=O)/C=C/c2c(C)nn(C)c2Cl)O3)s1 (stereo not drawn) [Compound 160, (E)-N-((5-(5-acetylthiophen-2-yl)-7-chloro-2,3-dihydrobenzofuran-2-yl)methyl)-3-(5-chloro-1,3-dimethyl-1H-pyrazol-4-yl)acrylamide]
pIC50 (3T3 cells; [1]): < 4.52
pIC50 (Z138 cells; [1]): < 4.52
pIC50 (MS751 cells; [1]): < 4.52

CC(=O)c1ccc(-c2cc(Cl)c3c(c2)CC(CNC(=O)/C=C/c2c(C)nc4sc(C)cn24)O3)s1 (stereo not drawn) [Compound 161, (E)-N-((5-(5-acetylthiophen-2-yl)-7-chloro-2,3-dihydrobenzofuran-2-yl)methyl)-3-(2,6-dimethylimidazo[2,1-b]thiazol-5-yl)acrylamide]
pIC50 (3T3 cells; [1]): < 4.52
pIC50 (Z138 cells; [1]): < 4.52
pIC50 (MS751 cells; [1]): < 4.52

CC(OC(=O)CCCC[C@@H]1SC[C@@H]2NC(=O)N[C@@H]21)c1ccc(-c2cc(Cl)c3c(c2)CC(CNC(=O)/C=C/c2cccnc2)O3)s1 (stereo partly drawn) [Compound 162, 1-(5-(7-chloro-2-(((E)-3-(pyridin-3-yl)acrylamido)methyl)-2,3-dihydrobenzofuran-5-yl)thiophen-2-yl)ethyl 5-((3aS,4S,6aR)-2-oxohexahydro-1H-thieno[3,4-d]imidazol-4-yl)pentanoate]
pIC50 (3T3 cells; [1]): 5.30 to 7.00
pIC50 (Z138 cells; [1]): > 7.00
pIC50 (MS751 cells; [1]): > 7.00

CC(=O)c1ccc(-c2cc(Cl)c3c(c2)CC(CNC(=O)/C=C/c2sccc2Cl)O3)s1 (stereo not drawn) [Compound 163, (E)-N-((5-(5-acetylthiophen-2-yl)-7-chloro-2,3-dihydrobenzofuran-2-yl)methyl)-3-(3-chlorothiophen-2-yl)acrylamide]
pIC50 (3T3 cells; [1]): < 4.52
pIC50 (Z138 cells; [1]): < 4.52
pIC50 (MS751 cells; [1]): < 4.52

CC(=O)c1ccc(-c2cc(Cl)c3c(c2)CC(CNC(=O)/C=C/c2nccn2C)O3)s1 (stereo not drawn) [Compound 164, (E)-N-((5-(5-acetylthiophen-2-yl)-7-chloro-2,3-dihydrobenzofuran-2-yl)methyl)-3-(1-methyl-1H-imidazol-2-yl)acrylamide]
pIC50 (3T3 cells; [1]): < 4.52
pIC50 (Z138 cells; [1]): < 4.52
pIC50 (MS751 cells; [1]): < 4.52

CC(=O)c1ccc(-c2ccc(Cl)c3c2CC(CNC(=O)/C=C/c2cccnc2)O3)s1 (stereo not drawn) [Compound 173, (E)-N-((4-(5-acetylthiophen-2-yl)-7-chloro-2,3-dihydrobenzofuran-2-yl)methyl)-3-(pyridin-3-yl)acrylamide]
pIC50 (3T3 cells; [1]): 5.30 to 7.00
pIC50 (Z138 cells; [1]): 5.30 to 7.00
pIC50 (MS751 cells; [1]): 5.30 to 7.00

CC(=O)c1ccc(-c2cc(Cl)c3c(c2)CC(CNC(=O)/C=C/c2ccc(C)nc2C)O3)s1 (stereo not drawn) [Compound 174, (E)-N-((5-(5-acetylthiophen-2-yl)-7-chloro-2,3-dihydrobenzofuran-2-yl)methyl)-3-(2,6-dimethylpyridin-3-yl)acrylamide]
pIC50 (3T3 cells; [1]): < 4.52
pIC50 (Z138 cells; [1]): < 4.52
pIC50 (MS751 cells; [1]): < 4.52

CCc1nc(C)c(/C=C/C(=O)NCC2Cc3cc(-c4ccc(C(C)=O)s4)cc(Cl)c3O2)[nH]1 (stereo not drawn) [Compound 177, (E)-N-((5-(5-acetylthiophen-2-yl)-7-chloro-2,3-dihydrobenzofuran-2-yl)methyl)-3-(2-ethyl-4-methyl-1H-imidazol-5-yl)acrylamide]
pIC50 (3T3 cells; [1]): < 4.52
pIC50 (Z138 cells; [1]): 5.30 to 7.00
pIC50 (MS751 cells; [1]): 5.30 to 7.00

C/C=C/C(=O)NCC1Cc2cc(-c3ccc(C(C)=O)s3)cc(Cl)c2O1 (stereo not drawn) [Compound 181, (E)-N-((5-(5-acetylthiophen-2-yl)-7-chloro-2,3-dihydrobenzofuran-2-yl)methyl)but-2-enamide]
pIC50 (3T3 cells; [1]): < 4.52
pIC50 (Z138 cells; [1]): < 4.52
pIC50 (MS751 cells; [1]): < 4.52

CC(=O)c1ccc(-c2cc(Cl)c3c(c2)CC(CNC(=O)/C=C/c2cccnc2C)O3)s1 (stereo not drawn) [Compound 182, (E)-N-((5-(5-acetylthiophen-2-yl)-7-chloro-2,3-dihydrobenzofuran-2-yl)methyl)-3-(2-methylpyridin-3-yl)acrylamide]
pIC50 (3T3 cells; [1]): < 4.52
pIC50 (Z138 cells; [1]): < 4.52
pIC50 (MS751 cells; [1]): 4.52 to 5.30

CC(=O)c1ccc(-c2cc(Cl)c3c(c2)CC(CNC(=O)/C=C/c2cc(C)[nH]c2C)O3)s1 (stereo not drawn) [Compound 185, (E)-N-((5-(5-acetylthiophen-2-yl)-7-chloro-2,3-dihydrobenzofuran-2-yl)methyl)-3-(2,5-dimethyl-1H-pyrrol-3-yl)acrylamide]
pIC50 (3T3 cells; [1]): < 4.52
pIC50 (Z138 cells; [1]): < 4.52
pIC50 (MS751 cells; [1]): < 4.52

CC(=O)c1ccc(-c2cc(Cl)c3c(c2)CC(CNC(=O)/C=C/c2cn(C)c4ccccc24)O3)s1 (stereo not drawn) [Compound 189, (E)-N-((5-(5-acetylthiophen-2-yl)-7-chloro-2,3-dihydrobenzofuran-2-yl)methyl)-3-(1-methyl-1H-indol-3-yl)acrylamide]
pIC50 (3T3 cells; [1]): < 4.52
pIC50 (Z138 cells; [1]): < 4.52
pIC50 (MS751 cells; [1]): < 4.52

CC(=O)c1ccc(-c2cc(Cl)c3c(c2)CC(CNC(=O)/C=C/c2nc4ccccc4s2)O3)s1 (stereo not drawn) [Compound 190, (E)-N-((5-(5-acetylthiophen-2-yl)-7-chloro-2,3-dihydrobenzofuran-2-yl)methyl)-3-(benzo[d]thiazol-2-yl)acrylamide]
pIC50 (3T3 cells; [1]): < 4.52
pIC50 (Z138 cells; [1]): < 4.52
pIC50 (MS751 cells; [1]): < 4.52

CCn1ccnc1/C=C/C(=O)NCC1Cc2cc(-c3ccc(C(C)=O)s3)cc(Cl)c2O1 (stereo not drawn) [Compound 191, (E)-N-((5-(5-acetylthiophen-2-yl)-7-chloro-2,3-dihydrobenzofuran-2-yl)methyl)-3-(1-ethyl-1H-imidazol-2-yl)acrylamide]
pIC50 (3T3 cells; [2]): < 4.52
pIC50 (Z138 cells; [2]): 4.52 to 5.30
pIC50 (MS751 cells; [2]): 4.52 to 5.30

CC(=O)c1ccc(-c2cc(Cl)c3c(c2)CC(CNC(=O)/C(C#N)=C/c2cccnc2)O3)s1 (stereo not drawn) [Compound 195, (E)-N-((5-(5-acetylthiophen-2-yl)-7-chloro-2,3-dihydrobenzofuran-2-yl)methyl)-2-cyano-3-(pyridin-3-yl)acrylamide]
pIC50 (3T3 cells; [2]): < 4.52
pIC50 (Z138 cells; [2]): 4.52 to 5.30
pIC50 (MS751 cells; [2]): 4.52 to 5.30

CC(=O)c1ccc(-c2cc(Cl)c3c(c2)CC(CNC(=O)/C=C/c2coc(C)n2)O3)s1 (stereo not drawn) [Compound 196, (E)-N-((5-(5-acetylthiophen-2-yl)-7-chloro-2,3-dihydrobenzofuran-2-yl)methyl)-3-(2-methyloxazol-4-yl)acrylamide]
pIC50 (3T3 cells; [2]): < 4.52
pIC50 (Z138 cells; [2]): < 4.52
pIC50 (MS751 cells; [2]): < 4.52
